Biological target: T1, rTgGlo1 (recombinant Toxoplasma gondii glyoxalase 1) (Toxoplasma gondii, UniProt A0A7J6JV59)
T1 construct: gene TGRH88_062270; full-length ORF (1008 nt, printed 336 residues) in pRSETb, His-tagged, E. coli BL21(DE3)pLysS; S-hexylglutathione-agarose then Ni-NTA; two glyoxalase domains 20-167 and 181-325
T1 sequence (A0A7J6JV59 1-336): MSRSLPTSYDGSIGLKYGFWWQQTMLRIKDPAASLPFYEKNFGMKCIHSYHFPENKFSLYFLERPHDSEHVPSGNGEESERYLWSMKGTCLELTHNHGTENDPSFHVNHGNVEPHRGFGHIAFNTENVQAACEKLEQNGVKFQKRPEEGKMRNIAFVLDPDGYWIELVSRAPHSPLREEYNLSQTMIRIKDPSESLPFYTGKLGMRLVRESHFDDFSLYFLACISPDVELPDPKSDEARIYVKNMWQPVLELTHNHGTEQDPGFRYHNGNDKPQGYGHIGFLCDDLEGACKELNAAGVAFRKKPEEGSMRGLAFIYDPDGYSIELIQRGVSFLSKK
Test: spectrophotometric at […] nm, Lineweaver-Burk
Format: biochemical

Compound: COc1cc(/C=C/C(=O)CC(=O)/C=C/c2ccc(O)c(OC)c2)ccc1O [curcumin]
- Ki: 12.9 ± 0.5 µM

From article PMC4688987, “Characterization of Toxoplasma gondii glyoxalase 1 and evaluation of inhibitory effects of curcumin on the enzyme and parasite cultures” (Parasites & Vectors, 2015)
